Test results: US20100041900A1, “Isolation of lactam compound from adlay bran and its use on anti-proliferative cancer cells” (KUANG TA FOODS CO., LTD, priority 2008, published 2010)
Values after ≈ are worked out from the molar mass of the structure shown. Like-named read-outs stand apart in the source and are kept apart here.

What was measured:
Type in all cases: cell-based
A549 (human lung cancer) = assay: MTT assay, growth inhibition of A549 cells; details: for IC50: Homo sapiens
Method: (§1) The cell lines A549 (human lung cancer), HT-29 (human colon carcinoma), and COLO 205 (human colon carcinoma) were obtained from the American Type Culture Collection (ATCC) (Rockville, Md.). These cell lines were maintained in DMEM containing 10% heat-inactivated fetal bovine serum, 100 units/mL of penicillin and 100 μg/mL of streptomycin, and were kept at 37° C. in a 5% CO2 incubator.
(§2) MTT assay was performed as described by Hansen et al. (Hansen et al., J. Immunol. Methods 119, 203-210, 1989). A549 (1.5×10^3 cells/well), HT-29 (2×10^3 cells/well), and COLO 205 (3×10^3 cells/well) were seeded in 96-well plates and grown overnight. Cells were then incubated in 10% FBS medium containing different amounts of adlay bran subfractions for 48 hours. At the end of incubation, media were replaced with 100 μL of reagent (MTT, 1 mg/mL) and incubated in a 5% CO2 incubator at 37° C. for another 2 h. The medium was then discarded and 100 μL of DMSO was added to each well. The absorbance was measured at 570 nm by scanning with a micro-plate reader (Molecular Devices, Calif.). Each sample was analyzed six times, and the values were averaged. For the determination of IC50 (the concentration of each substance required to inhibit cell proliferation by 50%), each sample was measured at five different concentrations by the MTT test. […] The IC50 values of each sample were collected from three replicates, and then mean±standard deviation values were obtained for the results of the IC50 assay.

[1] = system: HT-29 (human colon carcinoma); assay: MTT assay, growth inhibition of HT-29 cells; details: 48 hours incubation, mean ± SD of three replicates; for IC50: Homo sapiens, HT-29, 48 h, read-out: IC50 (concentration required for 50% growth inhibition of cancer cells), HT-29
Method: as §1, §2

[2] = system: COLO 205 (human colon carcinoma); assay: MTT assay, growth inhibition of COLO 205 cells; details: 48 hours incubation, mean ± SD of three replicates; for IC50: Homo sapiens, COLO 205, 48 h, read-out: IC50 (concentration required for 50% growth inhibition of cancer cells), COLO 205
Method: as §1, §2

[3] = A549, 48 h, A549 cells, 48 hours incubation, MTT, mean ± SD of three replicates, read-out: IC50 (concentration required for 50% growth inhibition of cancer cells), A549
[4] = A549, summary range over all five compounds and all three cell lines A549, HT-29, COLO 205, read-out: IC50 values against A549, HT-29 and COLO 205 cells (overall range)

Row | IC50 (A549 (human lung cancer); [3]) | IC50 (A549 (human lung cancer); [4]) | IC50 [1] | IC50 [2] | IC50 (concentration required for 50% growth inhibition of cancer cells), A549 (A549 (human lung cancer); A549 cells, 48 hours incubation, MTT, mean ± SD of three replicates) | IC50 (concentration required for 50% growth inhibition of cancer cells), HT-29 [1] | IC50 (concentration required for 50% growth inhibition of cancer cells), COLO 205 [2] | SMILES
1 | 37.1 ± 1.93 µg/mL (≈ 183 µM) | 28.6 to 72.6 µg/mL (≈ 141 to 357 µM) | 34.4 ± 3.53 µg/mL (≈ 169 µM) | 35.9 ± 4.65 µg/mL (≈ 177 µM) |  |  |  | O=C1C[C@]2(CO1)C(=O)Nc1ccccc12 [Compound 1, coixspirolactam A]
2 | 28.6 ± 2.04 µg/mL (≈ 132 µM) | 28.6 to 72.6 µg/mL (≈ 132 to 334 µM) | 32.7 ± 2.29 µg/mL (≈ 151 µM) | 41.3 ± 3.52 µg/mL (≈ 190 µM) |  |  |  | CC1OC(=O)C[C@@]12C(=O)Nc1ccccc12 (stereo partly shown) [Compound 2, coixspirolactam B]
3 |  |  |  |  | 31.75 ± 2.58 µg/mL | 37.55 ± 3.08 µg/mL | 48.12 ± 4.15 µg/mL | CC1OC(=O)C[C@@]12C(=O)Nc1ccccc12 (stereo partly shown) [Compound 3, coixspirolactam C]
4 | 65 ± 3.32 µg/mL (≈ 317 µM) | 28.6 to 72.6 µg/mL (≈ 139 to 354 µM) | 52.6 ± 2.64 µg/mL (≈ 256 µM) | 72.6 ± 5.31 µg/mL (≈ 354 µM) |  |  |  | COC(=O)[C@H]1Cc2ccccc2NC1=O [Compound 4, coixlactam]
5 | 42.6 ± 2.31 µg/mL (≈ 193 µM) | 28.6 to 72.6 µg/mL (≈ 129 to 328 µM) | 48.9 ± 3.83 µg/mL (≈ 221 µM) | 45.5 ± 6.42 µg/mL (≈ 206 µM) |  |  |  | COC(=O)CC1(O)C(=O)Nc2ccccc21 (stereo not shown) [Compound 5, methyl dioxindole-3-acetate]
